Data: patent US20220402948A1, “EGFR INHIBITOR, COMPOSITION AND PREPARATION METHOD THEREFOR” (BETTA PHARMACEUTICALS CO., LTD., priority 2019, published 2022)

Experiments:
[1] = target: IGF1R (Homo sapiens, UniProt P08069); experiment: IGF1R kinase test (mobility variation analysis, Caliper EZ Reader); assay type: biochemical; conditions: kinase enzymatic activity, Table 1; read-out: EGFR IGF1R IC50
Experimental: (§1) Mobility variation analysis was performed to determine the affinity of the compound for EGFRΔ19del/T790M/C797S, EGFR WT and IGF1R. The enzymatic reaction scheme is as follows:
(§2) 1. Prepare 1*kinase buffer as follows.
2. Preparation of compound concentration gradient: The test compound was tested with an initial concentration of 3000 nM (300 nM for some triple mutations and 100 nM for others), diluted in a 384 source plate (96-well plate for comparative compound 1 and compounds 1-38) to a 100% DMSO solution with 100-fold final concentration, and the compound is 3-fold diluted with Precision to 10 concentrations. A dispenser Echo 550 was used to transfer 250 nL 100-fold final concentration of the compound to the target plate OptiPlate-384F.
3. Prepare 2.5-fold final concentration (5-fold for comparative compound 1 and compounds 1-38) of kinase solution with 1×Kinase buffer. Following steps should also be carried out for comparative compound 1 and compounds 1-38: Add each prepared intermediate dilution compounds to the compound wells of 384-well plate respectively, and test the repeated wells of each concentration; add 5% DMSO of 5 plates into the negative control well and the positive control well respectively. Prepare 2.5-fold final concentration of kinase solution with 1×Kinase buffer.
(§3) 4. Add 10 μL of 2.5-fold final concentration of kinase solution to the compound well and the positive control well; add 10 μL of 1×Kinase buffer to the negative control well.
(§4) 5. Centrifuge at 1000 rpm for 30 s, shake the reaction plate for well mixing, and then incubate at room temperature for 10 minutes.
(§5) 6. Prepare a mixture of ATP and Kinase substrate at 5/3-fold final concentration with 1×Kinase buffer.
7. Add 15 μL mixture of 5/3-fold (2.5-fold for comparative compound 1 and compounds 1-38) final concentration of ATP and substrate to start reaction.
(§6) 8. Centrifuge the 384-well plate at 1000 rpm for 30 s, shake it well and then incubate it at room temperature for corresponding time.
(§7) 9. Add 30 μL of stop detection solution to stop the kinase reaction, centrifuge at 1000 rpm for 30 s, and shake it well.
(§8) 10. Read conversion rate with Caliper EZ Reader.
(§9) % Inhibition=((Conversion%_max−Conversion%_sample)/(Conversion%_max−Conversion%_min))*100
(§10) Wherein: Conversion%_sample is the sample conversion rate reading; Conversion%_min: Mean value of negative control wells, representing the conversion rate reading of wells without enzymatic activity; Conversion%_max: Mean value of positive control wells, representing the conversion rate reading of wells without compound inhibition.
(§11) The dose-effect curve was fitted with concentration log value as X-axis and percentage inhibition rate as Y-axis. GraphPad Prism 5 analysis software was used for fitting Log (inhibitor) vs. response—Variable slope with the dose-effect curve to obtain IC50 value of enzymatic activity for each compound.
(§12) The calculation formula is as Y-Bottom+(Top-Bottom)/(1+10^((Log IC50−X)*HillSlope)).

[2] = target: EGFR WT (Homo sapiens, UniProt P00533); experiment: EGFR WT kinase test (mobility variation analysis, Caliper EZ Reader); assay type: biochemical; conditions: kinase enzymatic activity, Table 1
EGFR WT, sequence (P00533 25-1210): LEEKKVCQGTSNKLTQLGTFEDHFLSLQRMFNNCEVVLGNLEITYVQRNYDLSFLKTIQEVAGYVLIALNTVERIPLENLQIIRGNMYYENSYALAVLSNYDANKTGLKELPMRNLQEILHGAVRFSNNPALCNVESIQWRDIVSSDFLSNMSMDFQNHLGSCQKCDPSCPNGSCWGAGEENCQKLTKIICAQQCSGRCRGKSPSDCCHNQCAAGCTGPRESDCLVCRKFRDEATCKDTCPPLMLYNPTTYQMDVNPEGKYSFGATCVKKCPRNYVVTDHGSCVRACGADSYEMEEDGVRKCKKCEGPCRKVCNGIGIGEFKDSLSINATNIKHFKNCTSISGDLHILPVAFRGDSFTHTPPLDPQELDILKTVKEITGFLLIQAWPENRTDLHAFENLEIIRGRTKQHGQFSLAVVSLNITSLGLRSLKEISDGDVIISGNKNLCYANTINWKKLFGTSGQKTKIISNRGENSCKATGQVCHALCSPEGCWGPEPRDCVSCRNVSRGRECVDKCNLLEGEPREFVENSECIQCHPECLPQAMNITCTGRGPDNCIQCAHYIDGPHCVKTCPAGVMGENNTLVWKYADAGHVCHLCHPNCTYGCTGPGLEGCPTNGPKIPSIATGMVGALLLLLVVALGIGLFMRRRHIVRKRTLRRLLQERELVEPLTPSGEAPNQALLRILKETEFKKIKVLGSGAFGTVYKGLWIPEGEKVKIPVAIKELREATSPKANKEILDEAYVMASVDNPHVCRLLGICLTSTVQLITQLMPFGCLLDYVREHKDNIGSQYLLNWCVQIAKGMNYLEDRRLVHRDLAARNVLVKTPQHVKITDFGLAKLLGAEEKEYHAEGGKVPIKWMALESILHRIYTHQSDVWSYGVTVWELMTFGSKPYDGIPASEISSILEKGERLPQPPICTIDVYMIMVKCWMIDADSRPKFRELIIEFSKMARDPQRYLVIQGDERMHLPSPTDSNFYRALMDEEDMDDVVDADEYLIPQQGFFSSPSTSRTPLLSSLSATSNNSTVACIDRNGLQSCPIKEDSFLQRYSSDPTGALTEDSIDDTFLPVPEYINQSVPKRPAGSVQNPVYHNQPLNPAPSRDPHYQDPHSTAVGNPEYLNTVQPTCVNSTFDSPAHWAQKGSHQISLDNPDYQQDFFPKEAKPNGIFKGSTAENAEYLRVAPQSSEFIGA
Experimental: as §1, §2
(§13) 3. […] Prepare 2.5-fold final concentration of kinase solution with 1×Kinase buffer.
as §3, §4, §5, §6, §7, §8, §9, §10, §11, §12

[3] = target: Ba/F3 cells with EGFR Δ19del/T790M/C797S mutation gene stably overexpressed (Homo sapiens, UniProt P00533, T790M/C797S, cells depend on it, form not given); experiment: Ba/F3-Δ19del/T790M/C797S cell proliferation assay (CellTiter Glo, 72 hours); assay type: cell-based; conditions: Table 2, read-out: EGFR Δ19del/T790M/C797S IC50
Ba/F3 cells with EGFR Δ19del/T790M/C797S mutation gene stably overexpressed, sequence (P00533 with tags, fused parts or gaps DEL746-750/T790M/C797S, form open): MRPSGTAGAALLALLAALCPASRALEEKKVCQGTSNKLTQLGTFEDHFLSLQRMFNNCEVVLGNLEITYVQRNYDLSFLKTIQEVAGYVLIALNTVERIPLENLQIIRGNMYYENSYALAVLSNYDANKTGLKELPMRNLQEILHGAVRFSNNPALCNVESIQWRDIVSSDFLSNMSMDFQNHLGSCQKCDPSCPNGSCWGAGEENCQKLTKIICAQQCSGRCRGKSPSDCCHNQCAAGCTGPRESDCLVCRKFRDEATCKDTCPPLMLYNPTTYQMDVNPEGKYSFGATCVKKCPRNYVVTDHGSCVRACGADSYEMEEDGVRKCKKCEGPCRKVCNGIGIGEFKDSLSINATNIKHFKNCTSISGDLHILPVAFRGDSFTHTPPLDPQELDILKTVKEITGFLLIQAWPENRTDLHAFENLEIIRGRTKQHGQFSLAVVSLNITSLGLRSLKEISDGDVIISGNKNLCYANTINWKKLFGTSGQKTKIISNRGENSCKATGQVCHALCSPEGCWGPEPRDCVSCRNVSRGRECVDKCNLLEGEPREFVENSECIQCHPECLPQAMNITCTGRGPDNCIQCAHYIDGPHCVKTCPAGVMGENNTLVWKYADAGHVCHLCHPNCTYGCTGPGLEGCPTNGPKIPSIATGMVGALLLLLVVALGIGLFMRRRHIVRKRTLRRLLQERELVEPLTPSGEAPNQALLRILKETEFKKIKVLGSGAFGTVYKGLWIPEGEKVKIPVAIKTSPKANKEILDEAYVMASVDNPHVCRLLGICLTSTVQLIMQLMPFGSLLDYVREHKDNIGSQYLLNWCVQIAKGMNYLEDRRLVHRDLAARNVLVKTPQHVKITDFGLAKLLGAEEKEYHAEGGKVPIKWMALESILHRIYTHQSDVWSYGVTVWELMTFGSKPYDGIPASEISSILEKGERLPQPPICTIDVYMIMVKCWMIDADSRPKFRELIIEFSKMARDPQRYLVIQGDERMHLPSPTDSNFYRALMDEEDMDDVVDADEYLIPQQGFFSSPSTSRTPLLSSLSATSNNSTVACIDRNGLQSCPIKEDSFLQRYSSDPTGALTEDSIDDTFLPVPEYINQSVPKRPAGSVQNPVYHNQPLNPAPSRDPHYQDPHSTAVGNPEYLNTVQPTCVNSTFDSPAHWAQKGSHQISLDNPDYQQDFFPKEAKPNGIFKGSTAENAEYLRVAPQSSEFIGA
Experimental: (§14) Cell line: Ba/F3 cells with EGFR Δ19del/T790M/C797S mutation gene stably overexpressed named Ba/F3-Δ119del/T90M/C797S, and A431 and Ba/F3-EGFR wild-type cell line.
(§15) a) Centrifuge the growth cells in logarithmic phase at 1000 rpm for 5 minutes, resuspend the cells in culture medium, and then count the cells;
(§16) b) Inoculate the cells into a 96-well cell culture plate with a density of 2000 cells/well;
(§17) b) Incubate cells in an incubator for another 72 hours.
(§18) a) Take out the 96-well cell culture plate and add 50 μl CTG reagent (CellTiter Glo kit, promega, Cat #G7573);
(§19) b) Shake the plate for 2 minutes and let cool at room temperature for 10 minutes;
(§20) c) Read luminous signal value with PerkinElmer reader,
(§21) Analysis of Experimental Data
(§22) The data were analyzed by GraphPad Prism 6.0 software to obtain the fitting curve of compound activity.
(§23) Y=Min+(Max−Min)/(1+10^((Log IC50−X)*slope));
(§24) X: Logarithm of compound concentration; Y: luminous signal.

[4] = target: EGFRΔ19del/T790M/C797S (Homo sapiens, UniProt P00533, T790M/C797S, form not given); experiment: EGFR Δ19del/T790M/C797S kinase test (mobility variation analysis, Caliper EZ Reader); assay type: biochemical; conditions: kinase enzymatic activity, Table 1
EGFRΔ19del/T790M/C797S, sequence (P00533 with tags, fused parts or gaps DEL746-750/T790M/C797S, form open): as above
Experimental: as §1, §2, §13, §3, §4, §5, §6, §7, §8, §9, §10, §11, §12

[5] = tested on: A431; experiment: A431 cell proliferation assay (CellTiter Glo, 72 hours); assay type: cell-based; conditions: Homo sapiens, A-431, 72 h, cell proliferation, A431, 72 hours, Table 2; read-out: A431 IC50
Experimental: as §14
RPMI 1640 and 10% FBS and 1% PS; DMEM and 10% FBS and 1% PS.
a) Dilute the test compound (20 mM stock solution) to 10 mM with 100% DMSO as the starting concentration, and then serially dilute 3 times with a “9+0” concentration in 96-well dilution plate (Cat #P-05525, Labcyte);
b) Dilute compound solution thereof to 1:100 (1:20 for comparative compound 1 and compounds 1-38) in medium to prepare 10-fold working solution;
as §15, §16
a) Compounds prepared at step 2 were added to cell plate with 15 μl per well, the final concentrations were 1000, 333, 111.1, 37, 12.3, 4.1, 1.4, 0.5, 0.2 and 0 nM, and the final concentration of DMSO was 0.1%. The blank control well was a culture medium (0.1% DMSO) (the blank control well of comparative compound 1 and compounds 1-38 was a culture medium (0.5% DMSO).
as §17, §18, §19, §20, §21, §22
Fitting compound IC50 from nonlinear regression equation:
as §23, §24

IGF1R, sequence (P08069 31-1367, species assumed): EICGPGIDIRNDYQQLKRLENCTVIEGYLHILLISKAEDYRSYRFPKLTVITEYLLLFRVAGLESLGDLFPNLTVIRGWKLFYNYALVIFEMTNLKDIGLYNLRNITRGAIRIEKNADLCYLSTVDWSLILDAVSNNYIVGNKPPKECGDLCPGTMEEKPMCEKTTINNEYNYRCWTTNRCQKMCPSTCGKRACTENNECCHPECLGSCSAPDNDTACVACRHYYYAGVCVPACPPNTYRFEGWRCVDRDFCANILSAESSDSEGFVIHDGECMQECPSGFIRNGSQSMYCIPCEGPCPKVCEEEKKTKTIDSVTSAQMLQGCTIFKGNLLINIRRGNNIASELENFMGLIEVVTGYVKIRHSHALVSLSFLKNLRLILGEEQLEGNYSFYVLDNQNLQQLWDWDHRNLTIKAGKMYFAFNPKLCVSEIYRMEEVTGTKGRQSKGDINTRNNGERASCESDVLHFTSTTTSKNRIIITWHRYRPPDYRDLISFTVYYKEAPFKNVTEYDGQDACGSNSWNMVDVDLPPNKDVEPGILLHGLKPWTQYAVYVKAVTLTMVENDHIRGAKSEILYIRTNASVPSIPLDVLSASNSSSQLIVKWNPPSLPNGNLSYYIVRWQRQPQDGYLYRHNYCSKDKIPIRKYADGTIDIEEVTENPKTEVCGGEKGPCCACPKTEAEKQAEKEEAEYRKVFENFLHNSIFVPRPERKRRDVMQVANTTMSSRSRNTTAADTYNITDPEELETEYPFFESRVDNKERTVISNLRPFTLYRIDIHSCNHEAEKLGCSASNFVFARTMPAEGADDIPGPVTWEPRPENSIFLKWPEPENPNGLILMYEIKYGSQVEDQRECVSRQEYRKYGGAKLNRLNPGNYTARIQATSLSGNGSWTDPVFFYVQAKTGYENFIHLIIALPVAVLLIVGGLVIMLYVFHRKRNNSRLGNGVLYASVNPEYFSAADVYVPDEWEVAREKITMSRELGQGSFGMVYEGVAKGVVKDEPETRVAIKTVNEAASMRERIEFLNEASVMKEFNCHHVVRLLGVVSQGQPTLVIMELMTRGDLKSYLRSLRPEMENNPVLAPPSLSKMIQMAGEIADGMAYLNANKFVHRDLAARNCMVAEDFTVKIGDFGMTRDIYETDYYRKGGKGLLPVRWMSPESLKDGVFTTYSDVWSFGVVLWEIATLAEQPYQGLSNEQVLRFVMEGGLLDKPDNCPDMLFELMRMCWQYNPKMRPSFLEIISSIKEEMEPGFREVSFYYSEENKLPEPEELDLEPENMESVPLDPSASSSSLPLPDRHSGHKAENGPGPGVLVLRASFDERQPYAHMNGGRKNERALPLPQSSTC

SMILES | IC50 [1] [nM] | IC50 [2] [nM] | GI50 [3] [nM] | IC50 [4] [nM] | IC50 [5] [nM]
CCc1cc(Nc2ncc(Br)c(Nc3ccc(-c4cn(C)c5ncccc45)cc3P(C)(C)=O)n2)c(OC)cc1N1CCC(N2CCN(C)CC2)CC1 [Compound 46, (2-((5-Bromo-2-((5-ethyl-2-methoxy-4-(-4-(4-methylpiperazin-1-yl)piperidin-1-yl)phenyl)amino)pyrimidin-4-yl)amino)-5-(1-methyl-1H-pyrrolo[2,3-b]pyridin-3-yl)phenyl)dimethylphosphine oxide] | 628 | 47.6 | 30.3 | 1.7 | 2300
CCc1cc(Nc2ncc(Br)c(Nc3ccc(-c4cncc(OC)n4)cc3P(C)(C)=O)n2)c(OC)cc1N1CCC(N2CCN(C)CC2)CC1 [Compound 13] | 182 | 31.1 | 40.5 | 0.4 | 1680
CCc1cc(Nc2ncc(Br)c(Nc3ccc(-c4ccc(C5CC5)nn4)cc3P(C)(C)=O)n2)c(OC)cc1N1CCC(N2CCN(C)CC2)CC1 [Compound 36, (2-((5-Bromo-2-((5-ethyl-2-methoxy-4-(4-(4-methylpiperazin-1-yl)piperidin-1-yl)phenyl)amino)pyrimidin-4-yl)amino)-5-(6-cyclopropylpyridazin-3-yl)phenyl)dimethylphosphine oxide] | 219 | 35.5 | 22.3 | 0.2 | 4640
CCc1cc(Nc2ncc(Br)c(Nc3ccc(-c4cn(C)nc4OC)cc3P(C)(C)=O)n2)c(OC)cc1N1CCC(N2CCN(C)CC2)CC1 [Compound 63] | 335 | 38.8 | 24.5 | 1.3 | 512
CCc1cc(Nc2ncc(Br)c(Nc3ccc(-c4ncc(C)cn4)cc3P(C)(C)=O)n2)c(OC)cc1N1CCC(N2CCN(C)CC2)CC1 [Compound 21, (2-((5-Bromo-2-((5-ethyl-2-methoxy-4-(4-(4-methylpiperazin-1-yl)piperidin-1-yl)phenyl)amino)pyrimidin-4-yl)amino)-5-(5-methylpyrimidin-2-yl)phenyl)dimethylphosphine oxide] | 224 | 25.6 | 8.8 | 0.7 | 1390
CCc1cc(Nc2ncc(Br)c(Nc3ccc(-c4ccc(F)cc4F)cc3P(C)(C)=O)n2)c(OC)cc1N1CCC(N2CCN(C)CC2)CC1 [Compound 6, (4-((5-Bromo-2-((5-ethyl-2-methoxy-4-(4-(4-methylpiperazin-1-yl)piperidin-1-yl)phenyl)amino)pyrimidin-4-yl)amino)-2′,4′-difluoro-[1,1′-biphenyl]-3-yl)dimethylphosphine oxide] | 147 | 16.7 | 21.4 | 0.9 | > 10000
CCc1cc(Nc2ncc(Br)c(Nc3ccc(-c4ncc(OC)cn4)cc3P(C)(C)=O)n2)c(OC)cc1N1CCC(N2CCN(C)CC2)CC1 [Compound 30] | 118 | 20.7 | 15.2 | 0.2 | 8870
CCc1cc(Nc2ncc(Br)c(Nc3ccc(-c4cn(C)nc4C#N)cc3P(C)(C)=O)n2)c(OC)cc1N1CCC(N2CCN(C)CC2)CC1 [Compound 64, 4-(4-((5-Bromo-2-((5-ethyl-2-methoxy-4-(4-(4-methylpiperazin-1-yl)piperidin-1-yl)phenyl)amino]pyrimidin-4-yl)amino)-3-(dimethylphosphoryl)phenyl)-1-methyl-1H-pyrazole-3-carbonitrile] | 330 | 43.1 | 47.3 | 0.8 | > 10000

The next lines start with the values.

IC50 [1] [nM] | IC50 [2] [nM] | GI50 [3] [nM] | IC50 [4] [nM] | IC50 [5] [nM] | SMILES
64 | 11.1 | 11.2 | 0.3 | 711 | CCc1cc(Nc2ncc(Br)c(Nc3ccc(-c4cnsc4)cc3P(C)(C)=O)n2)c(OC)cc1N1CCC(N2CCN(C)CC2)CC1 [Compound 38, (2-((5-Bromo-2-((5-ethyl-2-methoxy-4-(4-(4-methylpiperazin-1-yl)piperidin-1-yl)phenyl)amino)pyrimidin-4-yl)amino)-5-(isothiazol-4-yl)phenyl)dimethylphosphine oxide]
169 | 37.6 | 22.4 | 0.4 | 1700 | CCc1cc(Nc2ncc(Cl)c(Nc3ccc(-c4cnc(OC)nc4)cc3P(C)(C)=O)n2)c(OC)cc1N1CCC(N2CCN(C)CC2)CC1 [Compound 25, (2-((5-Chloro-2-((5-ethyl-2-methoxy-4-(4-(4-methylpiperazin-1-yl)piperidin-1-yl)phenyl)amino)pyrimidin-4-yl)amino)-5-(2-methoxypyrimidin-5-yl)phenyl)dimethylphosphine oxide]
149 | 13.9 | 14.5 | 0.4 | 769 | CCc1cc(Nc2ncc(Cl)c(Nc3ccc(-c4cscn4)cc3P(C)(C)=O)n2)c(OC)cc1N1CCC(N2CCN(C)CC2)CC1 [Compound 14, (2-((5-Chloro-2-((5-ethyl-2-methoxy-4-(4-(4-methylpiperazin-1-yl)piperidin-1-yl)phenyl)amino)pyrimidin-4-yl)amino)-5-(thiazol-4-yl)phenyl)dimethylphosphine oxide]
180 | 29.4 | 20.1 | 0.3 | 1430 | CCc1cc(Nc2ncc(Br)c(Nc3ccc(-c4ccc(C)cn4)cc3P(C)(C)=O)n2)c(OC)cc1N1CCC(N2CCN(C)CC2)CC1 [Compound 83, (2-((5-Bromo-2-((5-ethyl-2-methoxy-4-(4-(4-methylpiperazin-1-yl)piperidin-1-yl)phenyl)amino)pyrimidin-4-yl)amino)-5-(5-methylpyridin-2-yl)phenyl)dimethylphosphine oxide]
144 | 22 | 29.6 | 0.6 | 864 | CCc1cc(Nc2ncc(Cl)c(Nc3ccc(-c4nccc(OC)n4)cc3P(C)(C)=O)n2)c(OC)cc1N1CCC(N2CCN(C)CC2)CC1 [Compound 19, (2-((5-Chloro-2-((5-ethyl-2-methoxy-4-(4-(4-methylpiperazin-1-yl)piperidin-1-yl)phenyl)amino)pyrimidin-4-yl)amino)-5-(4-methoxypyrimidin-2-yl)phenyl)dimethylphosphine oxide]
